{"source": "patent US20060211606A1", "about": "“Peptides” (priority 2005, published 2006)", "test_system": "Human Skeletal Muscle Myoblasts (HSMM)", "experiment": "HSMM proliferation, BrdU incorporation", "type": "cell-based", "conditions": "48 hours", "experimental": "(A) Peptide A5: HSMM cells at 500 cells/well. Cultivation was carried out for 24 hours in 10% FCS, followed by two washes in serum free medium, stimulation for 48 hours and then treatment with BrdU for 5 hours. Concentrations of 0.1, 1, 10, 100 and 500 ng/ml of peptide A5 were tested, along with 0.1, 1, 10 and 100 ng/ml IGF-I. BrdU incorporation was measured to assess the level of cell proliferation achieved. Controls containing medium only, no cells (BLK), background staining (BG) and 10% FBS were also provided. Values on the Y-axis are for fluorescence (absorbence at 370 nm; mean plus standard error across 4 wells). The first five columns relate to peptide A5 at concentrations of 0.1, 1, 10, 100 and 500 ng/ml. The next column relates to the control containing medium only. The next three relate to IGF-I (See Example 1.5) alone at concentrations of 100, 10 and 0.1 ng/ml. The next three relate to controls containing 10% FBS, background staining and no cells respectively. * means P<0.05 compared to medium only control.\n(§1) (B) Peptide AS: HSMM cells at 500 cells/well. […] Concentrations of 0.1, 1, 10, 100 and 500 ng/ml of peptide AS in combination with 2 ng/ml IGF-I were tested, along with 0.1, 1, 10 and 100 ng/ml IGF-I. BrdU incorporation was measured to assess the level of cell proliferation achieved. […] Values on the Y-axis are for fluorescence (absorbence at 370 nm; mean plus standard error across 4 wells). […]\nas §1, with “(A)” for “(B)”, “AS” for “AS in combination with 2 ng/ml IGF-I”\n(B) Peptide A5: HSMM cells at 500 cells/well. […] Concentrations of 0.1, 1, 10, 100 and 500 ng/ml of peptide AS in combination with 2 ng/ml IGF-I were tested, along with 0.1, 1, 10 and 100 ng/ml IGF-I. BrdU incorporation was measured to assess the level of cell proliferation achieved. […]", "note": "Where no end group is shown, it is not given here. [ ]: non-standard residue; d: D form."}
{"substance": "A5: SEQ ID NO: 15 with D-Arginine at positions 14 and 15, amidated at the C-terminus, not pegylated (YQPPSTNKNTKSQ[dR][dR]KGSTFEEHK-NH2; N-terminus assumed; SMILES C[C@@H](O)[C@H](NC(=O)[C@H](CO)NC(=O)CNC(=O)[C@H](CCCCN)NC(=O)[C@@H](CCCNC(=N)N)NC(=O)[C@@H](CCCNC(=N)N)NC(=O)[C@H](CCC(N)=O)NC(=O)[C@H](CO)NC(=O)[C@H](CCCCN)NC(=O)[C@@H](NC(=O)[C@H](CC(N)=O)NC(=O)[C@H](CCCCN)NC(=O)[C@H](CC(N)=O)NC(=O)[C@@H](NC(=O)[C@H](CO)NC(=O)[C@@H]1CCCN1C(=O)[C@@H]1CCCN1C(=O)[C@H](CCC(N)=O)NC(=O)[C@@H](N)Cc1ccc(O)cc1)[C@@H](C)O)[C@@H](C)O)C(=O)N[C@@H](Cc1ccccc1)C(=O)N[C@@H](CCC(=O)O)C(=O)N[C@@H](CCC(=O)O)C(=O)N[C@@H](Cc1c[nH]cn1)C(=O)N[C@@H](CCCCN)C(N)=O) [Peptide A5]", "values": [{"measurement": "proliferation of HSMM (BrdU incorporation), with 2 ng/ml IGF-I in the medium", "setting": "A5 in combination with 2 ng/ml IGF-I, P<0.001", "value": "significant effect on the proliferation of HSMM at a higher confidence level"}, {"measurement": "proliferation of HSMM (BrdU incorporation), used in isolation", "setting": "A5 significant (P<0.1) at doses of 10 ng/ml and below, IGF-I alone 0.1, 10 and 100 ng/ml", "value": "significant effect"}]}
